Columns and labels:
[1] = design: species or system lapin; conditions: in vivo
Excerpt: Une étude in vivo de la fixation des filtres soufrés de formules III et Il à la couche cornée a été réalisée sur la peau de lapin. Aucune trace d'acide para-méthoxycinnamique, métabolite de tout filtre solaire de formules III ou II, n'a pu être décelée dans le sang des lapins traités. La méthode d'analyse par chromatographie en phase gazeuse couplée à la spectrométrie de masse permet de déceler des concentrations de l'ordre de 10 pg. L'on peut donc en conclure que ces composés ne pénètrent pas dans le torrent circulatoire, contrairement au para-méthoxycinnamate d'éthyle-2-hexyle évoqué dans le préambule ainsi que les produits obtenus à partir du Brevet Pierre FABRE.
Le composé présentant des propriétés de filtre solaire, conforme à la présente invention est incorporé à la concentration 5% dans une émulsion qui peut avoir par exemple la composition suivante:
Méthode de recherche de l'acide para-méthoxycinnamique (métabolite) dans le sang de lapin après application des filtres solaires soufrés conformes à l'invention incorporé dans l'émulsion précédente. • - Conditions d'application et préjèvement plasmatiques
2 g d'émulsion à tester sont appliqués sur la peau épilée du lapin. […] Les mesures sont effectuées sur la fraction plasmatique. - Déterminations quantitatives en CPG(SM […]

[2] = UV absorption spectrum (sunscreen filtering range); type: physicochemical
Excerpt: Les composés de formule III conformes à la présente invention possèdent des propriétés de filtres solaires intéressants. Ils présentent un maximum d'efficacité tant au niveau de leur capacité d'absorption ultra-violette qu'à celui de leur fixation sur la peau. Leur spectre d'absorption se situe dans la zone des U.V.B. érythématogènes avec un maximum vers 310 nm; ils laissent passer les rayons U.V.A.

maximum d'absorption U.V. [2]	Structure (SMILES)	concentration d'acide para-méthoxycinnamique retrouvé dans le sang [1]
	CCCCC(CC)COC(=O)C=Cc1ccc(OC)cc1 (stereo not drawn) [PMCEH, para-méthoxycinnamate d'éthyle-2 hexyle]	comprise entre le ng et plusieurs µg
310 nm	COc1ccc(/C=C/C(=O)OCCSSCC(N)C(=O)O)cc1 (stereo not drawn) [III (n = 2, m = 1, R2 = H et R1 = OH)]	
310 nm	COc1ccc(/C=C/C(=O)OCCS)cc1 [II, para-méthoxycinnamatede thio-2-éthanol]	

— patent publication EP0185066B1, “SULPHUR-CONTAINING DERIVATIVES OF PARA-METHOXYCINNAMIC ACID, PRODUCTION PROCESSES THEREOF, DERMO-PHARMACEUTICAL AND COSMETIC COMPOSITIONS CONTAINING THEM AND APPLICATIONS” (UNIVERSITE LOUIS PASTEUR (STRASBOURG I), priority 1984, dated 1986)
